Values of other authors, collected in patent US20040024065A1, “Novel metabolic targets and markers” (priority 2002, published 2004).

How the values were obtained:
PEMT = settings: alcohol consumption, before the development of cirrhosis
rat hepatocytes = rat hepatocytes incubated with inhibitor

| SMILES | activity of PEMT (PEMT) | PC synthesis via methylation of PE derived from ethanolamine, inhibited (rat hepatocytes) | amount of PE in the cells (rat hepatocytes) | amount of PE secreted into the medium, increase (rat hepatocytes) | secretion of the apoproteins into VLDL, LDL, HDL fractions or fraction with density greater than 1.18 g/ml (rat hepatocytes) |
| --- | --- | --- | --- | --- | --- |
| CCO [alcohol] | depresses |  |  |  |  |
| Nc1nccc2c1ncn2[C@@H]1O[C@H](CO)[C@@H](O)[C@H]1O [3-deazaadenosine] |  | more than 95% | doubled | 70% | not affected |
